Target: Plasma kallikrein (Homo sapiens, UniProt P03952)
Test: Inhibitory Activity Assay: Example compounds were evaluated for inhibition of the human activated kallikrein enzyme in two formats of an assay employing a fluorogenic peptide substrate. In one assay format, the concentrations of reagents were as follows: 20 mM Tris pH 7.5, 1 mM EDTA, 150 mM sodium chloride, 0.1% PEG-400, 0.1% Triton X-100, 500 pM activated kallikrein enzyme, 300 uM Pro-Phe-Arg-7-amido-4-methylcoumarin substrate. Prior to reaction initiation with substrate, enzyme and inhibitors were preincubated for 30 min at RT. After initiation with substrate, reactions were incubated for 10 min at RT and fluorescence emission at 460 nm from 380 nm excitation measured with a microplate reader. In another assay format, the concentrations of reagents were as follows: 20 mM Tris pH 7.5, 1 mM EDTA, 150 mM sodium chloride, 0.1% PEG-400, 0.1% Triton X-100, 5 pM activated kallikrein enzyme, 300 uM Pro-Phe-Arg-7-amido-4-methylcoumarin substrate. Prior to reaction initiation with substrate, enzyme and inhibitors were preincubated for 30 min at RT. After initiation with substrate, reactions were incubated for 18 h at RT and fluorescence emission at 460 nm from 380 nm excitation measured with a microplate reader.

Plasma kallikrein, sequence (P03952 20-390 limits assumed): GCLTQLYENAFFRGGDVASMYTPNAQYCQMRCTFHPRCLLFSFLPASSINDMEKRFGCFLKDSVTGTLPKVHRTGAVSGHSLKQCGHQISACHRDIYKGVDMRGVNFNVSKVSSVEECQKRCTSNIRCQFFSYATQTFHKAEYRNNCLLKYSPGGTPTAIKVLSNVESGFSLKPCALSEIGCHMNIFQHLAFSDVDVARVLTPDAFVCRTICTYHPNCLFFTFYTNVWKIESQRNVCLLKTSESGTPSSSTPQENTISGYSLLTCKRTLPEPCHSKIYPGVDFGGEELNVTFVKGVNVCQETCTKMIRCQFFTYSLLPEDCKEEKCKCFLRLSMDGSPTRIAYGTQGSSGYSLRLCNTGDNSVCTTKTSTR
Plasma kallikrein, sequence (P03952 391-638 limits assumed): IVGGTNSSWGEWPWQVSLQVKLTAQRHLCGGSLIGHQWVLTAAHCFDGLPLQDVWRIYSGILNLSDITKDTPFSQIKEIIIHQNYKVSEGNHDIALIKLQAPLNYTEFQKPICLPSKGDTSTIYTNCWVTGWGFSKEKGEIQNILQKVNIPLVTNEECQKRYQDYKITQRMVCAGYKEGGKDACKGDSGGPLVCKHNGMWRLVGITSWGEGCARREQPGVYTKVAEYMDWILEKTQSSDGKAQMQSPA

Work on `O=C(NCc1ncn2ccc(Cl)cc12)c1cnn(Cc2cc3cc(C4CC4)ccn3n2)c1` yielded an EC50 of less than 1 nM.
